outcome, EC50 and IC50 data for 50 compounds are collected here from PubChem BioAssay AID179 (DTP/NCI, 2004).

The test system of the assay is CEM cells HIV-1 protection, formazan growth assay. Put plainly: NCI AIDS Antiviral Assay. The following applies: for IC50: measured here: growth of uninfected CEM cells. Summed up: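 Protection of CEM cells against HIV-1 was scored from cell growth (soluble formazan) across five concentrations, with parallel uninfected cells. Lack of protection may reflect toxicity.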

Calls of active or inactive are those of the source.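 How the source made its calls: active means compounds giving half or more protection of infected cells from virus-caused growth loss, again on retest; inactive means the rest.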 Where a SMILES comes first, the peptide text is derived from it. The star is where a group is joined. X9 = CC(=O)NC1C(N*)OC(CO)C(O)C1O

On to `COC(OC)[C@@H](C)[C@H](O)[C@](C)(O)C1OC(C)(C)OC(C(C)C=C(C)C)C1C` (some centres undefined), for which the result was inactive. With `CCOC(=O)N1N(c2ccccc2)C(=O)C1(c1ccccc1)c1ccccc1`, the EC50 is greater than 200 µM and the IC50 turned out to be 135 µM. Consider `CC1CCN(SSc2nc3ccccc3s2)CC1`, for which the EC50 was 45.7 µM and the 50% inhibitory concentration (IC50) is 112 µM. For `Cc1nc2c(=S)[nH]ncc2[nH]1`, the EC50 is greater than 200 µM and the half-maximal inhibitory concentration (IC50) was greater than 200 µM. For the compound `Nc1[nH]c(=S)[nH]c(=O)c1N=O`, the EC50 was greater than 200 µM and the IC50 is greater than 200 µM.

As for `O=C1CCCC(=O)NNC(=O)NCCCCCCNC(=O)NN1`, the EC50 is greater than 30.2 µM and the 50% inhibitory concentration (IC50) was greater than 30.2 µM. Consider `CCOC(=O)C1(C#N)C2(C#N)C(N)=NC(ON=C(C)C)(ON=C(C)C)C12C#N` (centres undefined), for which the EC50 was greater than 200 µM and the IC50 was greater than 200 µM. `NC(=O)C(=CNc1nc(-c2cccc([N+](=O)[O-])c2)cs1)C(N)=O`: the EC50 was greater than 200 µM and the half-maximal inhibitory concentration (IC50) is greater than 100 µM. For `C#CC(C)(C)C(/C=N\NC(=O)O[C@H]1CC(C)CCC1C(C)C)CCC(=O)OC` (some centres undefined) the same measures were greater than 200 µM and 25.1 µM. `COc1ccc(Cc2nccc3cc(OC)c(OC)cc23)cc1`: the EC50 was greater than 72.4 µM and the IC50 was found to be 69.2 µM.

In the case of `Cc1nn2c(N)cc(=O)nc2nc1/C=C/c1ccc(N(C)C)cc1`, the EC50 is greater than 200 µM and the IC50 came to 4.27 µM. As to `O=C1/C(=C/c2ccccc2)CN(C(=O)C(F)(F)F)C/C1=C\c1ccccc1`, the result was inactive. Consider `CSc1sc2ccccc2[s+]1`, for which the outcome was inactive. As for `COc1cccc2ccc(C(=O)c3ccccc3)nc12`, the EC50 was greater than 97.7 µM and the half-inhibitory concentration (IC50) was greater than 97.7 µM.

For `Cc1cc2c(=O)cc(-c3ccc(Cl)cc3)oc2c(C(=O)O)c1C`, the outcome was inactive. Take `CCC(C)C(NC(=O)CNC(=O)C(Cc1c[nH]cn1)NC(=O)C(NC(=O)C(CS)NC(=O)C(CCC(N)=O)NC(=O)C(NC(=O)C(NC(=O)C(CO)NC(=O)C(NC(=O)C(CC(=O)NC1OC(CO)C(O)C(O)C1NC(C)=O)NC(=O)C(NC(=O)C(CS)NC(=O)C1CCCN1C(=O)CNC(=O)C(NC(=O)CN)C(C)O)C(C)O)C(C)C)C(C)O)C(C)C)C(C)O)C(=O)NC(CCCNC(=N)N)C(N)=O` (centres undefined) (H-GTGPCTD(X9)VSTVQCTHGIR-NH2; configuration not given here): the EC50 is greater than 50.1 µM and the IC50 was greater than 50.1 µM. In the case of `CSCCCNC(=O)c1csc(-c2csc(CCNC(=O)CNC(=O)CNC(=O)CNC(=O)OC(C)(C)C)n2)n1`, the EC50 is greater than 407 µM and the concentration for half-maximal inhibition (IC50) was greater than 407 µM. As to `Cc1ccc(S(=O)(=O)SCC(=O)c2ccc(Br)cc2)cc1`, the EC50 is 6.92 µM and the IC50 was determined as 93.3 µM. For `Cc1nc2ccccc2c(=O)n1NC(=O)c1ccc(N)cc1`, the EC50 was greater than 200 µM and the IC50 was greater than 200 µM. On to `Cc1ccccc1-n1c(C)nc(-c2ccccc2)cc1=O`, for which the EC50 is greater than 26.3 µM and the half-maximal inhibitory concentration (IC50) was greater than 26.3 µM. As for `Cc1ccc(S(=O)(=O)c2ccccn2)cc1`, the EC50 is 132 µM and the IC50 was 380 µM. For the compound `CC1=C(C)C(=O)C(C2=C(C3=CC(=O)C(C)=C(C)C3=O)C(=O)c3ccccc3C2=O)=CC1=O`, the EC50 was greater than 200 µM and the IC50 worked out at 5.62 µM. As to `Cc1ccc2oc3ccccc3c(=O)c2c1`, the EC50 was greater than 24.5 µM and the concentration for half-maximal inhibition (IC50) was greater than 24.5 µM.

On to `N#CC(Nc1cccc(C(F)(F)F)c1)c1ccccc1C(F)(F)F` (centres undefined), for which the EC50 is greater than 39.8 µM and the IC50 is greater than 39.8 µM. Take `Cc1ccc(S(=O)(=O)Nc2nc3ccccc3c(=O)n2C2CCCCC2)cc1`: the EC50 was greater than 200 µM and the IC50 was greater than 200 µM. `O=C1NC(=O)C23CCCCc4cccc(c42)C(=O)C13` (centres undefined): the EC50 is greater than 372 µM and the IC50 is greater than 372 µM.

In the case of `COc1ccc(-c2cc(C(=O)O)c3cc4ccccc4cc3n2)cc1Br`, the result was inactive.

`O=C(NCCN1CCCCC1)c1ccc(Br)cc1`: the EC50 is greater than 200 µM and the concentration for half-maximal inhibition (IC50) is greater than 200 µM. For `O=C(CCc1cc(O)cc(O)c1)NCCc1cc(OCc2ccccc2)cc(OCc2ccccc2)c1`, the result was inactive. Turning to `CN(/C(=N\O)c1ccccc1)c1ccccc1`, the outcome was inactive. As for `CSCC(NP1(=O)SC(NN=C(C)C)=NC1(C)C)C(=O)O` (centres undefined), the EC50 was greater than 708 µM and the 50% inhibitory concentration (IC50) was greater than 708 µM. As for `CCC1CN2CCc3cc(OC)c(OC)cc3C2CC1CC1c2cc(OC)c(OC)cc2CCN1C(=O)C(Cc1c[nH]c2ccccc12)NC(=O)OC(C)(C)C` (centres undefined), the outcome was inactive. For `CC(=O)C(=[N+]=[N-])C(=O)NCC#N`, the EC50 is greater than 200 µM and the IC50 was greater than 200 µM. Regarding `CCN(CCO)C(=O)C1(c2ccccc2)CCCCC1`, the concentration for a half-maximal effect (EC50) was greater than 501 µM and the IC50 was found to be 60.3 µM. On to `O=C1NC(=O)C(CCC(=O)c2ccc3ccccc3c2)C(=O)N1`, for which the EC50 was greater than 110 µM and the IC50 was greater than 110 µM. As to `O=[N+]([O-])c1ccc(-c2nc(N(CCO)CCO)c3ccccc3n2)o1`, the EC50 was greater than 200 µM and the IC50 was determined as 0.331 µM.

In the case of `Cc1cccc2c(N)c3cccc(C(=O)NCCCNCCN)c3nc12`, the EC50 was greater than 0.2 µM and the IC50 turned out to be 0.12 µM. Turning to `CC(C)[C@@H]1CC[C@@H](C)C[C@H]1OC(=O)/C=C1\C(C(=O)O[C@@H]2C[C@H](C)CC[C@H]2C(C)C)[C@H]2C=C[C@@H]1O2` (some centres undefined), the EC50 is greater than 200 µM and the IC50 was greater than 200 µM. In the case of `Cc1cc2c(=O)cc(-c3ccc(C(=O)O)cc3)oc2c(C(N)=O)c1C`, the outcome was inactive. Regarding `n1onc2c1NC1Nc3nonc3NC1N2` (centres undefined), the EC50 was greater than 200 µM and the IC50 is greater than 200 µM. Take `CNC(=O)CNC(=O)c1ccccc1SC(=O)CCCC[n+]1ccccc1`: the concentration for a half-maximal effect (EC50) is 1.95 µM and the 50% inhibitory concentration (IC50) came out at 22.9 µM. Consider `COc1ccc(C(=O)C(C(=O)C(=O)NCCCNC(=O)C(=O)C(C(=O)c2ccc(OC)cc2)c2ccc(OC)cc2)c2ccc(OC)cc2)cc1` (centres undefined), for which the outcome was inactive. As for `CCCCCCCCCC=C(c1cc(Br)cc(C(=O)O)c1O)c1cc(Br)cc(C(=O)O)c1O`, the EC50 was greater than 22.9 µM and the IC50 was greater than 22.9 µM. On to `O=[N+]([O-])c1ccc([As](=O)(O)O)c2ccccc12`, for which the EC50 is greater than 200 µM and the IC50 is greater than 200 µM.

As for `Cc1ccc(S(=O)(=O)OC2C(O)C(O)OC2C(c2cc(O)c3c(c2O)C(=O)c2ccccc2C3=O)c2cc(O)c3c(c2O)C(=O)c2ccccc2C3=O)cc1` (centres undefined), the EC50 is greater than 200 µM and the half-maximal inhibitory concentration (IC50) stood at 14.5 µM. Take `Cn1nc(NC(=O)c2cc(NC(=O)Nc3cc(C(=O)Nc4cc(C(=O)Nc5ccc6cc(S(=O)(=O)O)cc(S(=O)(=O)O)c6c5)n(C)n4)n(C)n3)nn2C)cc1C(=O)Nc1ccc2cc(S(=O)(=O)O)cc(S(=O)(=O)O)c2c1`: the EC50 was 5.13 µM and the IC50 is greater than 100 µM.

For `CCOC(=O)C(O)(NC(C)=O)C(F)(F)F` (centres undefined), the EC50 is greater than 200 µM and the IC50 is greater than 200 µM. As for `CC#CC#C/C=C1\C=CC2(OC=CC2OC(C)=O)O1` (centres undefined), the outcome was inactive.

On to `C=C(C)c1nc(C#N)c(N)o1`, for which the EC50 is greater than 200 µM and the IC50 was greater than 200 µM. Take `O=C(O)/C=C/C(=O)Nc1ncn[nH]1`: the EC50 is greater than 1380 µM and the IC50 is 1320 µM.
